Laboratory results taken from PubChem BioAssay (NCI).
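Compound exposure: 48 hours, 5 concentrations, 96-well plates. Here, GI50 denotes the concentration required for 50% inhibition of growth. Definition used: TGI = concentration required for complete inhibition of growth.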

Columns and labels:
Assay in all cases: NCI-60 cell line screen, 48 h
HOP-62 NSCLC = test system: HOP-62 NSCLC
NCI-H226 lung = test system: NCI-H226 lung
BT-549 breast = test system: BT-549 breast
A498 renal = test system: A498 renal
SW-620 colon = test system: SW-620 colon
UACC-62 melanoma = test system: UACC-62 melanoma
SNB-75 CNS = test system: SNB-75 CNS
SR leukemia = test system: SR leukemia
K-562 leukemia = test system: K-562 leukemia
U251 CNS = test system: U251 CNS

Row | SMILES | TGI (HOP-62 NSCLC) | TGI (NCI-H226 lung) | TGI (BT-549 breast) | TGI (A498 renal) | TGI (SW-620 colon) | TGI (UACC-62 melanoma) | TGI (SNB-75 CNS) | GI50 (HOP-62 NSCLC) | GI50 (SR leukemia) | TGI (SR leukemia) | GI50 (NCI-H226 lung) | GI50 (A498 renal) | GI50 (SW-620 colon) | GI50 (K-562 leukemia) | TGI (K-562 leukemia) | GI50 (UACC-62 melanoma) | GI50 (U251 CNS) | TGI (U251 CNS) | GI50 (BT-549 breast) | GI50 (SNB-75 CNS)
1 | CCOC(=O)C#Cc1ccc(C#CC(=O)OCC)cc1 | > 29.3 µM | > 23.7 µM | > 21.7 µM | > 51.5 µM | > 27.4 µM | > 23.4 µM | 0.609 µM | – | – | – | – | – | – | – | – | – | – | – | – | –
2 | CC[O-].CC[O-].O=Nc1ccc2cc([O-])ccc2c1.O=Nc1ccc2cc([O-])ccc2c1.[Ti+4] | 10.5 µM | 3.86 µM | – | 27.3 µM | 4.06 µM | – | – | 3.3 µM | 0.0107 µM | 2.95 µM | 1.67 µM | 9.01 µM | 1.97 µM | 2.85 µM | > 100 µM | 2.44 µM | 1.77 µM | 3.48 µM | – | –
3 | N#CC1(c2nc3ccccc3o2)C(=O)C(=O)N(c2ccc(Cl)c(Cl)c2)C(=O)C1=O | > 100 µM | > 100 µM | – | – | > 100 µM | – | > 100 µM | – | – | – | – | – | – | – | > 100 µM | – | – | – | – | –
4 | CNS(=O)(=O)NN(C)S(=O)(=O)c1ccc(Br)cc1 | > 100 µM | > 100 µM | – | > 100 µM | > 100 µM | > 100 µM | > 100 µM | – | – | > 100 µM | – | – | – | – | > 100 µM | – | – | > 100 µM | – | –
5 | O=C(Nc1ccncc1)C(=O)c1cn(S(=O)(=O)c2ccccc2F)c2ccccc12 | 34.3 µM | > 68.6 µM | 54.8 µM | 63.3 µM | > 100 µM | > 36.4 µM | 18 µM | 1.96 µM | – | – | 6.93 µM | 5.47 µM | 1.44 µM | 1.37 µM | > 100 µM | 0.708 µM | 1.89 µM | 34.3 µM | 4.41 µM | 1.65 µM
6 | COc1ccc(C(=O)/C=C/c2cc(C(=O)c3cc(OC)c(OC)c(OC)c3)ccc2OC)cc1 | 94.5 µM | > 100 µM | > 100 µM | > 100 µM | > 100 µM | – | 33.7 µM | 11.8 µM | – | – | 4.34 µM | 7.33 µM | 3.07 µM | 2.86 µM | > 100 µM | – | 3.11 µM | > 100 µM | 2.85 µM | 4.75 µM
7 | CC(C)(C)C(=O)C(c1ccc(-c2cscn2)cc1)c1ccc(-c2cscn2)cc1 | 40.6 µM | > 78.7 µM | – | 65.8 µM | > 100 µM | > 71.4 µM | 25.6 µM | – | – | – | – | – | – | – | > 100 µM | – | – | > 60.8 µM | – | –
8 | CN(/N=N/c1nc(OCc2ccccc2)c2[nH]cnc2n1)C(=O)N(C)/N=N/c1nc(OCc2ccccc2)c2[nH]cnc2n1 | > 100 µM | > 100 µM | > 100 µM | 54 µM | > 100 µM | > 100 µM | > 100 µM | 96.1 µM | – | – | 38.5 µM | 19.7 µM | 71.7 µM | 75.8 µM | > 100 µM | 30.8 µM | 49.9 µM | > 100 µM | 36.6 µM | > 100 µM
9 | COc1cc2c(cc1OC)[C@@H](C(O)c1ccccc1)NCC2 (stereo not given in full) | > 100 µM | > 100 µM | – | > 100 µM | > 100 µM | > 100 µM | > 100 µM | – | – | > 100 µM | – | – | – | – | > 100 µM | – | – | > 100 µM | – | –
10 | CCCCC(=O)[O-].N.N.N.N.N.[Co+3].[O-][Cl+3]([O-])([O-])[O-] | > 100 µM | – | – | > 100 µM | > 100 µM | > 100 µM | > 100 µM | > 100 µM | – | – | – | > 100 µM | > 100 µM | > 100 µM | > 100 µM | > 100 µM | > 100 µM | > 100 µM | – | 49.3 µM
11 | Cl.Fc1c[c-]c(-c2ccccn2)c(F)c1.[Pt].c1ccc([PH+](CC[PH+](c2ccccc2)c2ccccc2)c2ccccc2)cc1 | 0.688 µM | 1.13 µM | 0.978 µM | 0.478 µM | – | 0.364 µM | 0.534 µM | 0.186 µM | – | – | 0.184 µM | 0.103 µM | – | 0.0369 µM | – | 0.128 µM | 0.0319 µM | 1.13 µM | 0.0867 µM | 0.0234 µM
12 | O=[N+]([O-])c1cc(Br)cc2c1[nH]c1ccc(Br)cc12 | 5 µM | 21.9 µM | 58 µM | 81.8 µM | > 100 µM | > 100 µM | 14.8 µM | 2.11 µM | – | – | 3.24 µM | 6.86 µM | 7.97 µM | – | – | 22.1 µM | 14.8 µM | 93.2 µM | 18.7 µM | 2.12 µM
13 | CC(=O)OC[C@@H]1[C@H]2CC(=O)O[C@H]2C[C@H]1OC(C)=O | > 100 µM | – | – | > 100 µM | > 100 µM | > 100 µM | > 100 µM | – | – | > 100 µM | – | – | – | – | – | – | – | > 100 µM | – | –
14 | O=C(Nc1nccs1)c1cc(C2=CC=CC([N+](=O)[O-])C=C2)nc(=S)[nH]1 (stereo not given) | > 100 µM | > 100 µM | – | > 100 µM | > 100 µM | > 100 µM | > 100 µM | – | – | > 100 µM | – | – | – | – | > 100 µM | – | – | > 100 µM | – | –
15 | Cc1c(C(=O)CC(=O)C(=O)Nc2cccc(C(F)(F)F)c2)[n+](=O)c2ccccc2n1[O-] | 57.6 µM | 80.8 µM | – | 35.8 µM | 12.2 µM | 7.55 µM | 7.86 µM | – | – | 8.82 µM | – | – | – | – | 14.1 µM | – | – | 11 µM | – | –
16 | CCN(CC)C(=S)N/N=C(\C)c1ccccc1O | > 100 µM | 56.8 µM | – | > 100 µM | > 100 µM | > 100 µM | > 100 µM | – | – | > 100 µM | – | – | – | – | > 100 µM | – | – | 89 µM | – | –
17 | CN(C)c1ccc(/C=C2\N=C(c3ccc(N)cc3)OC2=O)cc1 | > 100 µM | > 100 µM | – | > 100 µM | > 100 µM | > 100 µM | > 100 µM | – | – | – | – | – | – | – | > 100 µM | – | – | > 100 µM | – | –
18 | Cc1nc(Nc2ccc(F)c(Cl)c2)sc1C(=O)O | 2.93 µM | 5.37 µM | 4.28 µM | 4.16 µM | 6.31 µM | 2.62 µM | 4.31 µM | 1.42 µM | – | – | 1.77 µM | 1.64 µM | 2.32 µM | 2.65 µM | > 100 µM | 1.17 µM | 1.44 µM | 3.04 µM | 1.7 µM | 1.18 µM
